From patent EP0657459A1, “Thienothiazine derivates, process for their preparation and their use as anti-inflammatory and analgesic agents” (Chemisch Pharmazeutische Forschungsgesellschaft m.b.H., priority 1993, dated 1995)
Where two headings read alike, the source gives them in different places.

Tests used:
5-Lipoxygenase = molecular target: T1, 5-Lipoxygenase (Rattus norvegicus, UniProt P12527); experiment: Formation of leukotriene B4 by neutrophils as measure of 5-lipoxygenase activity (A23187 stimulation, RIA); format: cell-based, Sprague Dawley Ratten
T1 sequence (P12527 1-673): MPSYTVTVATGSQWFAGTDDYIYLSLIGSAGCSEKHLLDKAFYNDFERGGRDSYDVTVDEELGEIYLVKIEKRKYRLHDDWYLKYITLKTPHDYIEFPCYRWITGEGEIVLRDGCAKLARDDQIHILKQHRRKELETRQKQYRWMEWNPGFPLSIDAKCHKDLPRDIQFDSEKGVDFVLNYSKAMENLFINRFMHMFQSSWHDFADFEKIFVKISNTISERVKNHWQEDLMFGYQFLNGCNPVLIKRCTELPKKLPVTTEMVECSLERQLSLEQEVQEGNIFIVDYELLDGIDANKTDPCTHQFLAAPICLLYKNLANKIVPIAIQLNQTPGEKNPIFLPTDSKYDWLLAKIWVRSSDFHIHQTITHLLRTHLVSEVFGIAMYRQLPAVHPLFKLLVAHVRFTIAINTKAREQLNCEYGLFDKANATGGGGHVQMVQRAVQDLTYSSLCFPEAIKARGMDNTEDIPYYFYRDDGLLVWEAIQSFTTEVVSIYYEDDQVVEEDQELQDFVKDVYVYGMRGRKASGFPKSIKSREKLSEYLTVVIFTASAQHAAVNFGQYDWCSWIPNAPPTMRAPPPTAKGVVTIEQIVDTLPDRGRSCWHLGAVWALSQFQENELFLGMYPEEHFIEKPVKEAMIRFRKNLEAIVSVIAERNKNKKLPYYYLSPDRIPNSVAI
Description: (§1) Die Bildung von Prostaglandin D2 durch Neutrophile wurde als Maß für die Cyclooxygenase-Aktivität verwendet und die Bildung von Leukotrien B4 als Maß für die 5-Lipoxygenase-Aktivität. Männlichen Sprague Dawley Ratten (250-300 g) wurde lamda - Carrageenan 1 mg intraperitoneal (gelöst in 0.5 ml dest. Wasser) injiziert. Nach 16 Stunden wurden die Ratten durch Exposition in Diethylether getötet. 15 ml eiskalte Hanks balanced salt solution (HBSS) wurden i.p. injiziert, die Neutrophilen durch Absaugen geerntet (10 ml), zentrifugiert (5 min, 100g, 4°C), die überstehende Lösung dekantiert und die Zellen in HBSS resuspendiert bei 4 °C bis zu einer Konzentration von 5x10⁶ Zellen/ml. 400 µl Zellsuspension (2x10⁶ Zellen), 0,5µl Verbindung gelöst in DMSO und 49,5 µl HBSS wurden 5 min bei 37°C inkubiert. Dann wurden 50 µl A23187 (2µmol/l Endkonzentration) zugefügt und anschließend wiederum 5 min bei 37°C inkubiert. Die Reaktion wurde durch Zentrifugieren 10000g, 3s gestoppt und die überstehende Flüssigkeit in vorgekühlte Plastikröhrchen übergeführt und vor dem Beginn der Radioimmunoassay-Messung im Eisbad max. 1 h belassen. PGD2 und LTB4 wurde nach Verdünnung mit HBSS mit Hilfe kommerzieller RIA-Kits gemessen. Als Vergleichssubstanz diente 6-Chlor-4-hydroxy-2-methyl-N-(2-pyridyl)-2H-thieno(2,3-e)1,2-thiazin-3carboxamid-1,1-dioxid ("Lornoxicam", Vbg.A)

Cyclooxygenase = experiment: Formation of prostaglandin D2 by neutrophils as measure of cyclooxygenase activity (A23187 stimulation, RIA); format: cell-based, Sprague Dawley Ratten
Description: as §1

[1] = rat peritoneal neutrophils (carrageenan-elicited), 2x10⁶ cells, A23187 2 µmol/l, 5 min 37°C, LTB4 by RIA, read-out: IC50 (µmol/l) LTB4
[2] = read-out: IC50 (µmol/l) PGD2, rat peritoneal neutrophils (carrageenan-elicited), 2x10⁶ cells, A23187 2 µmol/l, 5 min 37°C

Compound | IC50 (5-Lipoxygenase; [1]) | IC50 (Cyclooxygenase; rat peritoneal neutrophils (carrageenan-elicited), 2x10⁶ cells, A23187 2 µmol/l, 5 min 37°C, PGD2 by RIA, read-out: IC50 (µmol/l) PGD2) | IC50 (Cyclooxygenase; [2]) | IC50 (5-Lipoxygenase)
CN1C(C(=O)Nc2ccccn2)=C(O)c2sc(Cl)cc2S1(=O)=O [A] | > 10 µmol/L | 0.02 µmol/L |  | 
CN1C(C(=O)Nc2cccc(-c3cc4ccccc4s3)n2)=C(O)c2sc(Cl)cc2S1(=O)=O [Vbg 1, N-[6-(2-Benzo[b]thienyl)-2-pyridinyl]-6-chlor-4-hydrory-2-methyl-2H-thieno[2,3-e][1,2]thiazin-3-carboxamid-1,1-dioxid] | 2 µmol/L |  | 0.049 µmol/L | 
CN1C(C(=O)Nc2cccc(-c3ccc(-c4ccccc4)cc3)n2)=C(O)c2sc(Cl)cc2S1(=O)=O [Vbg 2, N-[6-(4-Biphenyl)-2-pyridinyl]-6-chlor-4-hydroxy-2-methyl-2H-thieno[2,3-e][1,2]thiazin-3-carboxamid-1,1-dioxid] |  |  | 3.5 µmol/L | 1.4 µmol/L
CN1C(C(=O)Nc2cccc(-c3cccc(Oc4ccc(F)cc4)c3)n2)=C(O)c2sc(Cl)cc2S1(=O)=O [Vbg 3, 6-Chlor-N-{6-[3-(4-fluorphenoxy)phenyl]-2-pyridinyl}-4-hydroxy-2-methyl-2H-thieno[2,3-e]-1,2-thiazin-3-carboxamid-1,1-dioxid] | 1.7 µmol/L |  | 0.45 µmol/L | 
CN1C(C(=O)Nc2cccc(-c3ccc(Oc4ccc(F)cc4)o3)n2)=C(O)c2sc(Cl)cc2S1(=O)=O [Vbg 4, 6-Chlor-N-{6-[5-(4-fluorphenoxy)-2-furyl]-2-pyridinyl}-4-hydroxy-2-methyl-2H-thieno[2,3-e]-1,2-thiazin-3-carboxamid-1,1-dioxid] | 1.3 µmol/L |  | 1.7 µmol/L | 
CN1C(C(=O)Nc2cccc(-c3cc4ccccc4o3)n2)=C(O)c2sc(Cl)c(Cl)c2S1(=O)=O [Vbg 5, N-[6-(2-Benzo[b]furyl)-2-pyridinyl]-6,7-dichlor-4-hydroxy-2-methyl-2H-thieno-[2,3-e][1,2]thiazin-3-carboxamid-1,1-dioxid] | 1.3 µmol/L |  | 0.036 µmol/L | 
